How the values were obtained:
Test in all cases: relative viability (nuclei count vs DMSO), 5 days (fraction); higher = more cells survive
[1] = compound: CCOC(=O)CCNc1cc(N2CCc3ccccc3CC2)nc(-c2ccccn2)n1 [GSK-J4] + O=C(c1cc(Cc2n[nH]c(=O)c3ccccc23)ccc1F)N1CCN(C(=O)C2CC2)CC1 [Olaparib] (partner 8 µM)
Procedure, shortened: (§1)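 Lung cancer cell lines in 1536-well plates got either a single drug or a fixed anchor-drug dose together with five library-drug doses (not always all listed) in √10 steps, by pin tool, on the day after seeding. Nuclei were counted after 5 days, and relative viability is the treated-to-vehicle ratio of nuclei counts. Values are medians of duplicate plates.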

[2] = compound: CN1CCC(CC1)OC2=CC(=C(C=C2)NC3=NC=C4C(=N3)N(C(=O)N4C)C5CCCC5)OC [AZ3146] + COc1cc2c(Oc3ccc(NC(=O)C4(C(=O)Nc5ccc(F)cc5)CC4)cc3F)ccnc2cc1OCCCN1CCOCC1 [Foretinib] (partner 0.25 µM)
Procedure, shortened: as §1

[3] = compound: CCOC(=O)CCNc1cc(N2CCc3ccccc3CC2)nc(-c2ccccn2)n1 [GSK-J4] + NC(=O)Nc1cc(-c2cccc(F)c2)sc1C(=O)N[C@H]1CCCNC1 [AZD7762] (partner 0.2 µM)
Procedure, shortened: as §1

[4] = compound: CN1CCC(CC1)OC2=CC(=C(C=C2)NC3=NC=C4C(=N3)N(C(=O)N4C)C5CCCC5)OC [AZ3146] + C[C@@H](Oc1cc(-c2cnn(C3CCNCC3)c2)cnc1N)c1c(Cl)ccc(F)c1Cl [Crizotinib] (partner 1 µM)
Procedure, shortened: as §1

| Cell Line | relative viability ([1]; first compound 0.5 µM) | relative viability ([1]; first compound 1.581 µM) | relative viability ([1]; first compound 5 µM) | relative viability ([1]; first compound 15.81 µM) | relative viability ([1]; first compound 50 µM) | relative viability ([2]; first compound 0.08 µM) | relative viability ([2]; first compound 0.253 µM) | relative viability ([2]; first compound 0.8 µM) | relative viability ([2]; first compound 2.53 µM) | relative viability ([2]; first compound 8 µM) | relative viability ([3]; first compound 0.5 µM) | relative viability ([3]; first compound 1.581 µM) | relative viability ([3]; first compound 5 µM) | relative viability ([3]; first compound 15.81 µM) | relative viability ([3]; first compound 50 µM) | relative viability ([4]; first compound 0.253 µM) | relative viability ([4]; first compound 0.8 µM) | relative viability ([4]; first compound 2.53 µM) | relative viability ([4]; first compound 8 µM) | relative viability ([4]; first compound 0.08 µM) |
| --- | --- | --- | --- | --- | --- | --- | --- | --- | --- | --- | --- | --- | --- | --- | --- | --- | --- | --- | --- | --- |
| HCC-78 | 0.688 | 0.774 | 1.1 | 0.656 | 0.742 | 0.51 | 0.547 | 0.534 | 0.601 | 0.58 | 0.686 | 0.702 | 0.874 | 0.485 | 0.583 | 0.326 | 0.329 | 0.387 | 0.361 |  |
| HCC-366 | 0.362 | 0.308 |  | 0.37 | 0.285 | 0.791 | 0.924 | 0.908 | 0.974 | 0.178 | 0.325 | 0.258 |  | 0.226 | 0.312 | 0.695 | 0.246 | 0.192 | 0.0532 | 0.514 |
| IA-LM | 0.872 | 0.9 | 0.874 | 0.706 | 0.169 | 1.21 | 1.36 | 1.33 | 1.08 | 0.285 |  |  |  |  |  | 0.654 | 0.898 | 0.615 | 0.115 |  |
| NCI-H520 | 0.32 | 0.278 | 0.354 | 0.332 | 0.29 | 0.566 | 0.867 | 0.58 | 0.91 | 0.83 |  |  |  |  |  | 0.959 | 0.613 | 0.486 | 0.406 | 0.691 |
| NCI-H522 | 0.597 | 0.552 |  | 0.531 | 0.409 |  |  |  |  |  | 0.909 | 0.759 |  | 0.637 | 0.603 |  |  |  |  |  |
| NCI-H661 | 0.704 | 0.67 | 0.7 | 0.559 | 0.461 | 0.98 | 1.03 | 0.97 | 0.982 | 0.764 |  |  |  |  |  | 1.14 | 1.03 | 1.11 | 0.814 | 0.979 |
| NCI-H1299 | 0.96 | 0.916 | 0.878 | 0.929 | 0.772 | 1.06 | 1.1 | 1.07 | 1.12 | 0.679 |  |  |  |  |  | 0.961 | 0.952 | 0.636 | 0.511 | 0.964 |
| NCI-H1395 | 0.435 | 0.48 | 0.399 | 0.45 | 0.406 | 0.989 | 0.962 | 0.949 | 1.07 | 1.02 | 0.403 | 0.415 | 0.409 | 0.351 | 0.413 |  |  |  |  |  |
| NCI-H1563 |  |  |  |  |  | 0.901 | 1.07 | 0.903 | 0.901 | 0.864 |  |  |  |  |  | 0.896 | 0.954 | 0.802 | 0.777 | 0.874 |
| NCI-H1623 |  |  |  |  |  | 0.797 | 0.757 | 0.855 | 0.955 | 0.899 |  |  |  |  |  |  |  |  |  |  |
| NCI-H1648 | 0.869 |  | 1.44 |  | 0.793 |  |  |  |  |  | 0.676 |  | 0.925 |  | 0.843 |  |  |  |  |  |
| NCI-H1650 | 0.852 | 0.739 | 0.871 | 0.639 | 0.509 | 1.29 | 1.49 | 0.879 | 1 | 0.604 |  |  |  |  |  | 0.95 | 0.84 | 0.95 | 0.489 | 0.933 |
| NCI-H1792 | 0.45 | 0.286 | 0.309 | 0.429 | 0.341 |  |  |  |  |  | 0.771 | 0.534 | 0.325 | 0.674 | 0.457 | 1.07 | 1.01 | 0.797 | 1 | 0.834 |
| NCI-H1793 | 0.751 | 0.634 | 0.482 | 0.201 | 0.145 | 0.672 | 0.699 | 0.755 | 0.686 | 0.316 | 0.595 | 0.324 | 0.215 | 0.151 | 0.156 |  |  |  |  |  |
| NCI-H2009 | 0.603 | 0.638 | 0.556 | 0.593 | 0.449 | 1.11 | 1.28 | 1.26 | 1.22 | 0.957 |  |  |  |  |  | 1.12 | 1.04 | 0.87 | 0.885 | 0.978 |
| NCI-H2023 | 0.453 | 0.413 | 0.472 | 0.379 | 0.348 | 0.783 | 0.788 | 0.774 | 0.949 | 0.227 |  |  |  |  |  | 0.636 | 0.485 | 0.407 | 0.449 | 0.592 |
| NCI-H2228 | 0.555 | 0.608 | 0.583 | 0.728 | 0.903 | 0.736 | 0.743 | 0.736 | 0.88 | 0.656 |  |  |  |  |  | 0.503 | 0.423 | 0.396 | 0.369 | 0.537 |
| NCI-H2342 | 0.368 | 0.427 | 0.501 | 0.431 | 0.476 | 0.928 | 1.03 | 1.16 | 1.01 | 1.07 | 0.624 | 0.525 | 0.531 | 0.557 | 0.362 |  |  |  |  |  |
| SK-LU-1 | 0.433 | 0.465 | 0.429 | 0.428 | 0.309 | 0.803 | 0.867 | 0.804 | 0.897 | 0.528 |  |  |  |  |  | 1.11 | 1.03 | 0.985 | 0.471 | 1.1 |
| SK-MES-1 | 0.675 | 0.641 | 0.727 | 0.626 | 0.22 | 0.979 | 0.832 | 0.974 | 1 | 0.957 |  |  |  |  |  | 1.03 | 0.97 | 1.12 | 1.05 | 0.936 |
| SW 900 | 0.903 | 0.935 | 1.15 | 0.797 | 0.549 | 0.899 | 0.761 | 0.811 | 0.893 | 0.759 | 0.68 | 0.676 | 0.597 | 0.57 | 0.55 |  |  |  |  |  |
| SW 1573 | 0.471 | 0.365 | 0.486 | 0.354 | 0.153 | 0.897 | 0.732 | 0.983 | 1.15 | 0.884 |  |  |  |  |  | 0.843 | 0.892 | 0.891 | 0.531 | 0.758 |
